According to paper PMC5512541 (Science translational medicine, 2016):
Where two headings read alike, the source gives them in different places.

Assays:
[1] = mouse interstitial fluid (ISF); endogenous Aβ; ref [8], [9]; cited from earlier work
[2] = human cerebrospinal fluid (CSF); endogenous Aβ; ref [8], [9]; cited from earlier work
[3] = tested on: amyloid pathology; conditions: administration in a mouse model of AD; ref [65]; cited from earlier work
[4] = tested on: ISF Aβ40 and Aβ42; experiment: In vivo microdialysis of hippocampal ISF Aβ after γ-secretase inhibitor; set-up: species or system mouse; conditions: APP/PS1 and APP/PS1; nExt1CKO mice, 3-4 months; LY411575 5 mg/kg intraperitoneally; hippocampal microdialysis samples every 60 min for 6 hr; ELISA

For amyloid-β [Aβ], the “half-life in the brain” value [1] is given as 1 to 2 h and the “half-life in the brain” value [2] is given as ~ 8 hours.

For low-molecular-weight heparin, the “effect on amyloid pathology” value [3] is listed as “reduced amyloid pathology”.

With `C[C@H](NC(=O)[C@@H](O)c1cc(F)cc(F)c1)C(=O)N[C@@H]1C(=O)N(C)c2ccccc2-c2ccccc21` [γ-secretase inhibitor, LY411575] the “ISF Aβ40 and Aβ42 concentration after treatment” value [4] was “gradually decreased in a time-dependent manner”.
